{"source": "patent US11319299B2", "about": "“Substituted carboxamides as inhibitors of WDR5 protein-protein binding” (PROPELLON THERAPEUTICS INC., priority 2016, dated 2022)", "data": [{"target": "WDR5 (Homo sapiens (Human), UniProt P61964)", "assay": "Surface Plasmon Resonance (SPR) assay, KD and residence time", "assay_type": "binding", "settings": "surface plasmon resonance (SPR); read-out: WDR5 binding affinity (KD)", "units": {"Kd": "nM"}, "values": [{"smiles": "C[C@@H]1CN(c2cc(F)c(C3=CCN(C(=O)c4cnccn4)CC3)cc2NC(=O)c2c[nH]c(=O)cc2C(F)(F)F)C[C@H](C)N1C", "note": "[Example 573, N-[4-fluoro-5-[1-(pyrazine-2-carbonyl)-3,6-dihydro-2H-pyridin-4-yl]-2-[(3R,5S)-3,4,5-trimethylpiperazin-1-yl]phenyl]-6-oxo-4-(trifluoromethyl)-1H-pyridine-3-carboxamide]", "Kd": 2.19}, {"smiles": "COCCN(C)[C@@H]1CCN(c2cc(F)c(-c3cnc(N4CCOCC4)nc3)cc2NC(=O)c2c[nH]c(=O)cc2C(F)(F)F)C1", "note": "[Example 578, N-[4-fluoro-5-(2-morpholin-4-ylpyrimidin-5-yl)-2-[(3R)-3-[2-methoxyethyl(methyl)amino]pyrrolidin-1-yl]phenyl]-6-oxo-4-(trifluoromethyl)-1H-pyridine-3-carboxamide]", "Kd": 16.9}, {"smiles": "C[C@@H]1CN(c2cc(F)c(-c3ccc(S(C)(=O)=O)nc3)cc2NC(=O)c2c[nH]c(=O)cc2C(F)(F)F)C[C@H](C)N1C", "note": "[Example 581, N-[4-fluoro-5-(6-methylsulfonylpyridin-3-yl)-2-[(3R,5S)-3,4,5-trimethylpiperazin-1-yl]phenyl]-6-oxo-4-(trifluoromethyl)-1H-pyridine-3-carboxamide]", "Kd": 0.768}, {"smiles": "C[C@@H]1CN(c2cc(F)c(-c3cnc(NS(C)(=O)=O)nc3)cc2NC(=O)c2c[nH]c(=O)cc2C(F)(F)F)C[C@H](C)N1C", "note": "[Example 582, N-[4-fluoro-5-[2-(methanesulfonamido)pyrimidin-5-yl]-2-[(3R,5S)-3,4,5-trimethylpiperazin-1-yl]phenyl]-6-oxo-4-(trifluoromethyl)-1H-pyridine-3-carboxamide]", "Kd": 5.78}, {"smiles": "C[C@@H]1CN(c2cc(F)c(C3=CCCN(c4ncc(C#N)cn4)C3)cc2NC(=O)c2c[nH]c(=O)cc2C(F)(F)F)C[C@H](C)N1C", "note": "[Example 583, N-[5-[1-(5-cyanopyrimidin-2-yl)-3,6-dihydro-2H-pyridin-5-yl]-4-fluoro-2-[(3R,5S)-3,4,5-trimethylpiperazin-1-yl]phenyl]-6-oxo-4-(trifluoromethyl)-1H-pyridine-3-carboxamide]", "Kd": 0.877}, {"smiles": "CN(CC1CC1)[C@@H]1CCN(c2cc(F)c(-c3cnc(N4CCOCC4)nc3)cc2NC(=O)c2c[nH]c(=O)cc2C(F)(F)F)C1", "note": "[Example 586, N-[4-fluoro-5-(2-morpholin-4-ylpyrimidin-5-yl)-2-[(3R)-3-[cyclopropylmethyl(methyl)amino]pyrrolidin-1-yl]phenyl]-6-oxo-4-(trifluoromethyl)-1H-pyridine-3-carboxamide]", "Kd": 15.5}, {"smiles": "CN(CC1CC1)[C@@H]1CCN(c2cc(F)c(-c3cnc(N4CCOCC4)nc3)cc2NC(=O)c2cn(C)c(=O)cc2C(F)(F)F)C1", "note": "[Example 587, N-[4-fluoro-5-(2-morpholin-4-ylpyrimidin-5-yl)-2-[(3R)-3-[cyclopropylmethyl(methyl)amino]pyrrolidin-1-yl]phenyl]-1-methyl-6-oxo-4-(trifluoromethyl)pyridine-3-carboxamide]", "Kd": 253}, {"smiles": "C[C@@H]1CN(c2cc(F)c(C3=CCN(c4ncc(C#N)cn4)C3)cc2NC(=O)c2c[nH]c(=O)cc2C(F)(F)F)C[C@H](C)N1C", "note": "[Example 588, N-[5-[1-(5-cyanopyrimidin-2-yl)-2,5-dihydropyrrol-3-yl]-4-fluoro-2-[(3R,5S)-3,4,5-trimethylpiperazin-1-yl]phenyl]-6-oxo-4-(trifluoromethyl)-1H-pyridine-3-carboxamide]", "Kd": 1.72}, {"smiles": "C[C@@H]1CN(c2cc(F)c(-c3ccc(F)c(C(N)=O)c3)cc2NC(=O)c2cn(C)c(=O)cc2C(F)(F)F)C[C@H](C)N1C", "note": "[Example 589, N-[5-(3-carbamoyl-4-fluorophenyl)-4-fluoro-2-[(3R,5S)-3,4,5-trimethylpiperazin-1-yl]phenyl]-1-methyl-6-oxo-4-(trifluoromethyl)pyridine-3-carboxamide]", "Kd": 7.46}, {"smiles": "C[C@@H]1CN(c2cc(F)c(-c3ccc(C(N)=O)c(F)c3)cc2NC(=O)c2cn(C)c(=O)cc2C(F)(F)F)C[C@H](C)N1C", "note": "[Example 590, N-[5-(4-carbamoyl-3-fluorophenyl)-4-fluoro-2-[(3R,5S)-3,4,5-trimethylpiperazin-1-yl]phenyl]-1-methyl-6-oxo-4-(trifluoromethyl)pyridine-3-carboxamide]", "Kd": 3.32}, {"smiles": "C[C@@H]1CN(c2cc(F)c(-c3ccc(F)c(C(N)=O)c3)cc2NC(=O)c2cn(C)c(=O)cc2C(F)F)C[C@H](C)N1C", "note": "[Example 591, N-[5-(3-carbamoyl-4-fluorophenyl)-4-fluoro-2-[(3R,5S)-3,4,5-trimethylpiperazin-1-yl]phenyl]-4-(difluoromethyl)-1-methyl-6-oxopyridine-3-carboxamide]", "Kd": 15.5}, {"smiles": "C[C@@H]1CN(c2cc(F)c(-c3ccc(C(N)=O)c(F)c3)cc2NC(=O)c2cn(C)c(=O)cc2C(F)F)C[C@H](C)N1C", "note": "[Example 592, N-[5-(4-carbamoyl-3-fluorophenyl)-4-fluoro-2-[(3R,5S)-3,4,5-trimethylpiperazin-1-yl]phenyl]-4-(difluoromethyl)-1-methyl-6-oxopyridine-3-carboxamide]", "Kd": 6.8}, {"smiles": "CC(C)OC(=O)N1CCC=C(c2cc(NC(=O)c3c[nH]c(=O)cc3C(F)(F)F)c(N3C[C@@H](C)N(C)[C@@H](C)C3)cc2F)C1", "note": "[Example 601, propan-2-yl 5-[2-fluoro-5-[[6-oxo-4-(trifluoromethyl)-1H-pyridine-3-carbonyl]amino]-4-[(3R,5S)-3,4,5-trimethylpiperazin-1-yl]phenyl]-3,6-dihydro-2H-pyridine-1-carboxylate]", "Kd": 0.271}, {"smiles": "CC(C)OC(=O)N1CC=C(c2cc(NC(=O)c3c[nH]c(=O)cc3C(F)(F)F)c(N3C[C@@H](C)N(C)[C@@H](C)C3)cc2F)CC1", "note": "[Example 602, propan-2-yl 4-[2-fluoro-5-[[6-oxo-4-(trifluoromethyl)-1H-pyridine-3-carbonyl]amino]-4-[(3R,5S)-3,4,5-trimethylpiperazin-1-yl]phenyl]-3,6-dihydro-2H-pyridine-1-carboxylate]", "Kd": 0.475}, {"smiles": "CNC(=O)c1ccc(-c2cc(NC(=O)c3c[nH]c(=O)cc3C(F)(F)F)c(N3C[C@@H](C)N(C)[C@@H](C)C3)cc2F)cc1F", "note": "[Example 603, N-[4-fluoro-5-[3-fluoro-4-(methylcarbamoyl)phenyl]-2-[(3R,5S)-3,4,5-trimethylpiperazin-1-yl]phenyl]-6-oxo-4-(trifluoromethyl)-1H-pyridine-3-carboxamide]", "Kd": 1.09}, {"smiles": "CNC(=O)c1cc(-c2cc(NC(=O)c3c[nH]c(=O)cc3C(F)(F)F)c(N3C[C@@H](C)N(C)[C@@H](C)C3)cc2F)ccc1F", "note": "[Example 604, N-[4-fluoro-5-[4-fluoro-3-(methylcarbamoyl)phenyl]-2-[(3R,5S)-3,4,5-trimethylpiperazin-1-yl]phenyl]-6-oxo-4-(trifluoromethyl)-1H-pyridine-3-carboxamide]", "Kd": 1.71}, {"smiles": "CNC(=O)c1ccc(-c2cc(NC(=O)c3c[nH]c(=O)cc3C(F)F)c(N3C[C@@H](C)N(C)[C@@H](C)C3)cc2F)cc1F", "note": "[Example 605, 4-(difluoromethyl)-N-[4-fluoro-5-[3-fluoro-4-(methylcarbamoyl)phenyl]-2-[(3R,5S)-3,4,5-trimethylpiperazin-1-yl]phenyl]-6-oxo-1H-pyridine-3-carboxamide]", "Kd": 0.6}]}]}
